Measurements published in patent US8481762B2, “Administration of compounds that increase glutathione levels in the melanocytes for the treatment of canities” (L'Oreal, priority 2004, dated 2013).

System: human melanocyte line WM35
Settings: wild-type WM35 treated 24 h before H2O2 stress; compared with clone-2 line
Description: To carry out the test, the cells are inoculated at the density of 2.5×10^4 cells/well and then treated with the compounds to be evaluated:
a—1:1 mixture containing 4 μg/ml of cafestol and kahweol;
After 24 h, the cells are exposed to a stress induced by H2O2.
The cell viability is measured 24 h after the stress with the aid of 2′,7′-dichlorodihydrofluoresceine diacetate (H2DCFDA; D399, Molecular Probes).

Cc1c(-c2cnccn2)ssc1=S [oltipraz]
effect on sensitivity of the wild-type line to H2O2 induced stress: limits the sensitivity of the cells to H2O2 induced stress
